The text below walks through data of article PMC3684613 (PLoS ONE, 2013).

Like-named read-outs stand apart in the source and are kept apart here.

Assay [1] deals with P. falciparum 3D7. Further details: method as in ChEMBL-NTD. As to conditions: ref ChEMBL-NTD, cited from earlier work.
The subject of assay [2] is P. falciparum 3D7. The assay is described as follows: DAPI stain fluorescent high content imaging assay, P. falciparum 3D7 (confirmatory screen, Avery). The settings on record: Plasmodium falciparum; for EC50: 3D7, read-out: EC50_nM; for inhibition of growth at 5 µM: 3D7, read-out: percent_inh @ 5 uM.
The mark [3] stands for this setting: values follow the order of the source (GNF; GSK; StJude).

For the compound `CSC1=NC(=Nc2c(C)cccc2C)C2(CCC(C(C)(C)C)CC2)N1c1ccc(Cl)cc1` (centres unmarked) [MMV666596], the EC50 with P. falciparum 3D7 [1] (source GNF (GNF-Pf id)) is 1480 nM; with P. falciparum 3D7 [2] it was 135 nM. Further, in the assay with P. falciparum 3D7 [2], the inhibition of growth at 5 µM turned out to be 96%.
Consider `CCCCCCc1cc2cc(-c3nc4ccccc4[nH]3)c(=Nc3ccccc3C)oc2cc1O` [MMV666597], for which the EC50 with P. falciparum 3D7 [1] (setting [3]) was 2120 nM; in the assay with P. falciparum 3D7 [2], 551 nM. Moreover, the inhibition of growth at 5 µM in the assay on P. falciparum 3D7 [2] worked out at 96%.
In the case of `O=c1nc(C=Cc2ccc(Br)cc2)oc2ccccc12` [MMV666599], the EC50 in the assay on P. falciparum 3D7 [1] (source GSK (TCMDC ids)) was 1050 nM. For the same compound, the inhibition of growth at 5 µM in the assay on P. falciparum 3D7 [2] stood at 94%.
Regarding `CCOC(=O)c1c(C)n(-c2ccc(Cl)cc2)c2ccc(OC(=O)C=Cc3ccccc3)cc12` [MMV666600], the EC50 in the assay with P. falciparum 3D7 [1] (source GSK (TCMDC id)) was 698 nM. Further, in the assay on P. falciparum 3D7 [2], the EC50 was 216 nM and the inhibition of growth at 5 µM stood at 97%.
For `CCOC(=O)C1=C(c2ccccc2)N=c2sc(=Cc3cc(C)n(-c4ccc(F)cc4)c3C)c(=O)n2C1c1cccc(OC)c1OC` (centres unmarked) [MMV666601], the EC50 with P. falciparum 3D7 [1] (source GNF (GNF-Pf id)) is 2320 nM; with P. falciparum 3D7 [2], 154 nM. In addition, the inhibition of growth at 5 µM in the assay with P. falciparum 3D7 [2] was 94%.
For the compound `CCOC(=O)C1=C(C)N=c2sc(=Cc3ccccc3O)c(=O)n2C1c1ccc(OC)c2ccccc12` (centres unmarked) [MMV666604], the EC50 with P. falciparum 3D7 [1] (source GSK (TCMDC ids)) was 1260 nM. For the same compound, in the assay on P. falciparum 3D7 [2], the EC50 was 1510 nM and the inhibition of growth at 5 µM came out at 97%.
Take `O=[N+]([O-])c1ccc(C=NNc2nc3ccccc3[nH]2)cc1` [MMV666607]: the EC50 was 818 nM with P. falciparum 3D7 [1] (source GNF (GNF-Pf id)), 283 nM in the assay with P. falciparum 3D7 [1] (source GSK (TCMDC id)) and 142 nM with P. falciparum 3D7 [2]. Besides, the inhibition of growth at 5 µM with P. falciparum 3D7 [2] stood at 99%.
Consider `COc1ccccc1C(=O)ON=C(N)Cc1cccc2ccccc12` [MMV666686], for which the EC50 with P. falciparum 3D7 [1] (setting [3]) was 352 nM. Also, in the assay with P. falciparum 3D7 [2], the EC50 is 814 nM and the inhibition of growth at 5 µM was found to be 97%.
For the compound `COc1cc(C(=O)ON=C(N)Cc2cccc3ccccc23)cc(OC)c1OC` [MMV666687], in the assay with P. falciparum 3D7 [1] (setting [3]), the EC50 was 280 nM. Moreover, in the assay on P. falciparum 3D7 [2], the EC50 is 782 nM and the inhibition of growth at 5 µM came to 99%.
With `Cc1cc(C=C2SC(=Nc3ccccc3)N(C3CCCC3)C2=O)c(C)n1-c1ccc(Cl)cc1` [MMV666688], in the assay on P. falciparum 3D7 [1] (source GSK (TCMDC id)), the EC50 was 876 nM. Also, in the assay on P. falciparum 3D7 [2], the EC50 was 263 nM and the inhibition of growth at 5 µM was 97%.
As for `COc1ccc(Nc2nc(NN=Cc3ccc(O)cc3)nc(Nc3ccc([N+](=O)[O-])cc3)n2)cc1` [MMV666689], the EC50 with P. falciparum 3D7 [1] (source GSK) is 1120 nM. In addition, in the assay with P. falciparum 3D7 [2], the EC50 was 532 nM and the inhibition of growth at 5 µM came to 98%.
For `COc1ccc(C=C2SC(=N)N(c3ccccc3OC)C2=O)cc1` [MMV666691], the EC50 with P. falciparum 3D7 [1] (source GSK (TCMDC id)) is 300 nM. For the same compound, in the assay with P. falciparum 3D7 [2], the EC50 was 168 nM and the inhibition of growth at 5 µM was 97%.
For `CCCCCCc1cc2cc(-c3csc(C=Cc4ccccc4)n3)c(=O)oc2cc1O` [MMV666692], the EC50 with P. falciparum 3D7 [1] (setting [3]) was 970 nM; with P. falciparum 3D7 [2] it was 387 nM. Moreover, the inhibition of growth at 5 µM in the assay with P. falciparum 3D7 [2] worked out at 92%.
Take `COc1cccc(C=Cc2nc(=O)c3ccccc3o2)c1OC` [MMV666693]: the EC50 in the assay on P. falciparum 3D7 [1] (source GSK (TCMDC id)) was 64.4 nM; with P. falciparum 3D7 [2] it was 23.8 nM. In the assay with P. falciparum 3D7 [2], the inhibition of growth at 5 µM turned out to be 96%.
Regarding `COc1ccc(CCn2c(=N)c(C(=O)NCc3cccnc3)cc3c(=O)n4cccc(C)c4nc32)cc1` [MMV667488], the EC50 was 1400 nM with P. falciparum 3D7 [1] (setting [3]) and 373 nM in the assay with P. falciparum 3D7 [2].
